Test results reported in patent US11938136B2, “Compositions for treating spinal muscular atrophy” (Hoffmann-La Roche Inc., priority 2015, dated 2024).

Tests used:
SMN protein [1] = test: SMN protein assay (HTRF) in SMA patient fibroblast cells; format: cell-based, human; settings: SMA patient fibroblasts
Excerpt: The term “EC1.5x concentration for SMN protein expression” (or “EC1.5x SMN protein”) is defined as that concentration of test compound that is effective in producing 1.5 times the amount of SMN protein in an SMA patient fibroblast cell compared to the amount produced from the vehicle control.
(A) SMN2 splicing in SMA Type 1 fibroblasts. (B) SMN protein in SMA Type 1 fibroblasts. (C) SMN protein in SMA Type 1 motor neurons. (D) SMN1 and SMN2 splicing in whole blood derived from HV. […] SMN splicing was assessed by RT-PCR, and SMN protein levels were assessed by homogenous time-resolved fluorescence (HTRF) in fibroblast lysates, and by immunostaining for SMN in motor neurons. Data represent means standard error (SEM) of 3 evaluations per data point and are expressed as fold change vs. untreated controls.
The SMN HTRF (homogeneous time resolved fluorescence) assay is used to quantify the level of SMN protein in SMA patient fibroblast cells treated with test compounds. […]
Cells are thawed and cultured in DMEM-10% FBS for 72 hours. Cells are trypsinized, counted and re-suspended to a concentration of 25,000 cells/mL in DMEM-10% FBS. […] Fluorescence for each well of the plate at 665 nm and 620 nm is measured on an EnVision multilabel plate reader (Perkin-Elmer). […]

SMN protein [2] = test: SMN protein in brain and quadriceps muscle of SMNΔ7 mice (HTRF); format: in vivo, mouse
Description: (§1) (A) SMN protein in brains of C/C-allele mice. (B) SMN protein in brains of SMNΔ7 mice. (C) SMN protein in quadriceps muscle of C/C-allele mice. (D) SMN protein in quadriceps muscle of SMNΔ7 mice. C/C-allele mice and SMNΔ7 mice were treated with the compound of Example 20. One hour after the last dose, brains and quadriceps muscles were collected and levels of SMN protein were assessed by HTRF. Data represent means SEM of 5-6 animals per group and are expressed as fold change vs. vehicle-treated controls. *=p<0.05, **=p<0.01, ***=p<0.001 vs. untreated controls.
(§2) In vivo, the compound of Example 20 increases SMN protein in the brain and muscle in the severe SMNΔ7 model and the milder C/C-allele model, carrying human SMN2 transgenes. Adult C/C-allele mice were treated for 10 days with vehicle or the compound of Example 20 (1, 3 or 10 mg/kg PO, daily), and 3 days old (P3) SMNΔ7 mice were treated for 7 days with vehicle or the compound of Example 20 (0.1, 0.3, 1 or 3 mg/kg IP, daily). […] In SMNΔ7 mice, the SMN protein increase was only partial in both brain and muscle, reaching approximately 43% (brain) and 55% (muscle) of protein levels in heterozygous mice.

SMN protein [3] = test: SMN protein in brain and quadriceps muscle of C/C-allele mice (HTRF); format: in vivo, mouse
Description: as §1, §2

SMNΔ7 mice = test: Neuromuscular connectivity and muscle atrophy in SMNΔ7 mice (immunohistochemistry); format: in vivo, mouse; settings: 0.1, 0.3, 1 mg/kg IP once per day, P3 to P14
Description: SMNΔ7 mice were treated with the compound of Example 20 from P3 to P14, and neuromuscular connectivity and muscle atrophy were assessed by immunohistochemistry. (A) vGlut1-positive proprioceptive inputs in L3-5 spinal cord. (B) Ventral motor axons in L3-5 spinal cord. (C) NMJ innervation onto longissimus muscle. (D) EDL muscle cross-sectional area. Data represent means SEM of 4-5 mice per group. *=p<0.05; **=p<0.01; ***=p<0.001 vs. vehicle-treated SMNΔ7 mice.
Lastly, the compound of Example 20 improves neuromuscular connectivity in a severe SMA mouse model in vivo. SMNΔ7 mice were treated from P3 to P14 by IP application of vehicle or 0.1, 0.3, 1 mg/kg Example 20 once per day. At P14, 1 hour after the last dose spinal cord and muscle tissues were processed for histological assessment.

Cc1cn2nc(-c3cc(=O)n4cc(N5CCNC6(CC6)C5)ccc4n3)cc(C)c2n1 [Example 20, 7-(4,7-diazaspiro[2.5]octan-7-yl)-2-(2,8-dimethylimidazo[1,2-b]pyridazin-6-yl)pyrido[1,2-a]pyrimidin-4-one]
maximal increase in SMN protein above untreated cells (SMN protein [1]): 60-80% | SMN protein in brain, of protein levels in heterozygous mice (SMN protein [2]; SMNΔ7 mice): approximately 43% | SMN protein in muscle, of protein levels in heterozygous mice (SMN protein [2]; SMNΔ7 mice): ~55% | maximum increase of SMN protein levels in brain and muscle tissue (SMN protein [2]; neonatal SMNΔ7 mice, 1-3 mg/kg IP daily, 7 days from P3): 2-3 fold | SMN levels in muscle compared with heterozygous mice (SMN protein [3]; C/C-allele mice, 10 mg/kg dose): no different from those in heterozygous mice | maximum increase of SMN protein levels in brain and muscle tissue (SMN protein [3]; adult C/C-allele mice, 10 mg/kg PO daily, 10 days): 2-3 fold | fiber size in extensor digitorum longus (EDL) muscles relative to vehicle-treated SMNΔ7 mice (SMNΔ7 mice): dose-dependently and significantly increased | number of motor axons relative to vehicle-treated SMNΔ7 mice (SMNΔ7 mice): dose-dependently and significantly increased | number of vGlut1 inputs relative to vehicle-treated SMNΔ7 mice (SMNΔ7 mice): dose-dependently and significantly increased | percentage of fully innervated NMJs relative to vehicle-treated SMNΔ7 mice (SMNΔ7 mice; longissimus muscle): dose-dependently and significantly increased
